# Assay results: patent publication US20120071464A1, “METHOD OF TREATMENT OF OBSESSIVE COMPULSIVE DISORDER WITH ONDANSETRON” (priority 2009, published 2012)
# Values joined by “and” are separate entries in the source; they are usually repeats but may differ in a detail not shown here. Equal values may be shown once. “Also recorded” adds a separate entry of the source.
# What was measured:
# [1] = test system: patients with treatment-resistant OCD under stable treatment with SRIs; test: Ondansetron augmentation therapy (SRI), single-blind 12-week study with 4-week discontinuation follow-up; assay type: in vivo, human; set-up: average reduction in CGI scores for the whole group / YBOCS % Reduction, 6 Weeks: concentration or dose not given beside the values; settings: for worsening of YBOCS symptoms during the discontinuation phase: after Week 12
# Method: Twenty-one patients with a DSM-IV diagnosis of treatment-resistant OCD, under stable treatment with SRIs approved by the FDA for OCD therapy, received 12 weeks of single-blind ondansetron augmentation initiated at a dose of 0.25 mg twice daily for 2 weeks, and titrated to 0.5 mg twice daily for 10 weeks. Patients were rated every two weeks using the Yale Brown Obsessive Compulsive Scale (YBOCS) and Clinical Global Impressions Scale (CGI). Treatment-resistant patients were defined as having completed an adequate trial of SRIs at a moderate to high dose for at least 12 weeks and still having a YBOCS severity of >24, and CGI-Severity of ≧4. Treatment response was defined as an additional 25% reduction in YBOCS score from YBOCS score at the initiation of ondansetron augmentation, an end of treatment (EOT) period YBOCS of ≦24, and CGI-Improvement (CGI-I) of ≦2. Additionally, ondansetron was discontinued after 12 weeks and patients were followed up for another 4 weeks for relapse in YBOCs symptoms.
# [2] = test system: OCD patients resistant to SRI plus antipsychotic therapy; test: Ondansetron augmentation therapy (SRI and antipsychotic), single-blind 12-week study; assay type: in vivo, human
# Description: Between March 2008 and November 2008, fourteen adults aged 18 to 55 were enrolled in a study at the Institute for Neuroscience, Florence, Italy. […] All diagnoses were established utilizing a structured interview, the Structured Clinical Interview for DSM IV Axis I Disorders (SCID I). (See Spitzer, R. L. et al. ARCH GEN PSYCHIATRY 49(8):624-649) Potential subjects with a history of alcohol or substance abuse, current severe depressive symptoms, bipolar disorder, panic disorder, schizophrenia, other psychiatric conditions, heart disease, arrhythmia, liver problems (including cirrhosis), seizures, glaucoma or serious medical disease were excluded. Patients with hoarding as their only OCD symptom and women of childbearing potential not using a medically acceptable contraceptive method were also excluded. After being fully informed about the study and signing an informed consent approved by the Internal Institutional Review Board, subjects were administered an ondansetron hydrochloride (oral solution) dosage of 0.25 mg twice a day for 6 weeks, followed by 0.5 mg twice a day for 6 weeks for a total observation period of 12 weeks. […] The Y-BOCS, Montgomery-Asberg Depression Rating Scale (MADRS) (see Montgomery, S. A., BR J PSYCHIATRY 1979; 134:382-389) was administered at screening and baseline, and these assessments were repeated at every follow-up visit at 2-week intervals, along with the Clinical Global Impressions-Improvement (CGI-I) rating (see Guy, W. ECDEU Assessment Manual for Psychopharmacology. US Dept Health, Education, and Welfare publication (ADM) 76-338. Rockville, Md.: National Institute of Mental Health; 1976:218-222) and an unpublished Drug Effect scale. The Drug Effect scale asked subjects to rate “How anxious are you now?” on a scale of zero (not at all) to 10 (“the most anxious I have ever been”). Similar rating questions have been “Do you experience appearance or increment in frequency of headaches?”, “Do you experience appearance or increment in frequency of headaches fatigue?” and “Do you experience appearance or increment in frequency of headaches constipation” and so on regarding other common ondansetron side effects (diarrhea, urinary retention, itching, and dizziness). Furthermore, each evening during the first week of study medication, a study psychiatrist called the subject to ask for major or unexpected collateral effects (as chest pain, an unexplained skin rash, or tremors.). […] (See […]. et al., Am J PSYCHIATRY 1997; 154:320-321) Subjects with MADRS scores ≧18 were excluded. Ratings were administered by an investigator who was blind to the treatment condition of the patients. Given the small sample size, mean changes from baseline in rating scales were tested with a non-parametric method based on ranks (Wilcoxon signed rank test), using a two-tailed significance level of p≦0.05. Relationships among rated and demographical variables were tested with Spearman's rank correlation tests, using a two-tailed significance level of p≦0.05. Age, baseline OCD severity, and depressive symptoms were controlled for by stratifying through the Mantel-Haenszel χ2 test. Body mass index (BMI) was adjusted given the differences of ondansetron bioavailability according to BMI.
# [3] = test system: mesenteric bed or the nerves in the heart; settings: animal studies; cited from earlier work
# [4] = end of 6th week, non responders (n = 9)
# [5] = end of 12th week, non responders (n = 9)
# [6] = end of 12th week, responders (n = 12)
# [7] = individual patients, versus baseline
# [8] = individual patients, EC: week 1 score carried forward
# [9] = end of 6th week, non responders (n = 5)
# [10] = end of 6th week, responders (n = 9)
# [11] = end of 12th week, non responders (n = 5)
# [12] = end of 12th week, responders (n = 9)
# [13] = individual patients 1-14, versus baseline
smiles,measurement,setting,value
Cc1nccn1CC1CCc2c(c3ccccc3n2C)C1=O (stereo not drawn) [ondansetron],tolerability of treatment,"[1]; 12 weeks, up to 0.5 mg twice daily",well tolerated
same,% Decrease in YBOCS Scores,"[1]; All Patients, week 2",12.66%
same,Avg YBOCS Scores,"[1]; All Patients, week 2",26.29
same,% Decrease in YBOCS Scores,"[1]; All Patients, week 4",16.93%
same,Avg YBOCS Scores,"[1]; All Patients, week 4",25
same,% Decrease in YBOCS Scores,"[1]; All Patients, week 6",19.3%
same,Avg YBOCS Scores,"[1]; All Patients, week 6",24.29
same,% Decrease in YBOCS Scores,"[1]; All Patients, week 8",21.99%
same,Avg YBOCS Scores,"[1]; All Patients, week 8",23.48
same,% Decrease in YBOCS Scores,"[1]; All Patients, week 10",24.21%
same,Avg YBOCS Scores,"[1]; All Patients, week 10",22.81
same,% Decrease in YBOCS Scores,"[1]; All Patients, week 12",26.27%
same,Avg YBOCS Scores,"[1]; All Patients, week 12",22.19
same,Avg YBOCS Scores,"[1]; All Patients, week 14 (ondansetron discontinued after week 12)",24.95
same,Avg YBOCS Scores,"[1]; All Patients, week 16 (ondansetron discontinued after week 12)",25.43
same,% Decrease in YBOCS Scores,"[1]; Non-Responders, week 2",2.93%
same,% Decrease in YBOCS Scores,"[1]; Non-Responders, week 4",2.93%
same,% Decrease in YBOCS Scores,"[1]; Non-Responders, week 6",2.56%
same,% Decrease in YBOCS Scores,"[1]; Non-Responders, week 8",2.2%
same,% Decrease in YBOCS Scores,"[1]; Non-Responders, week 10",1.47%
same,% Decrease in YBOCS Scores,"[1]; Non-Responders, week 12",2.93%
same,% Decrease in YBOCS Scores,"[1]; Responders, week 2",20.06%
same,% Decrease in YBOCS Scores,"[1]; Responders, week 4",27.58%
same,% Decrease in YBOCS Scores,"[1]; Responders, week 6",32.03%
same,% Decrease in YBOCS Scores,"[1]; Responders, week 8",37.05%
same,% Decrease in YBOCS Scores,"[1]; Responders, week 10",41.5%
same,% Decrease in YBOCS Scores,"[1]; Responders, week 12",44.01%
same,patients experiencing a treatment response in 12 weeks or less,[1]; Twelve of the 21 patients,57%
same,"difference between YBOCS score at baseline and after 12 weeks, non-responders",[1]; after 12 weeks,2.9%
same,"reduction in CGI-I from baseline, responders",[1]; after 12 weeks,77%
same,"reduction in YBOCS from baseline, responders",[1]; after 12 weeks,44%
same,worsening of YBOCS symptoms during the discontinuation phase,[1]; all patients,14.6%
same,worsening of YBOCS symptoms during the discontinuation phase,[1]; responders,38.3%
same,patients experiencing response within the first 6 weeks,"[1]; eight of 21 patients, 25% improvement in YBOCS, EOT YBOCS <24, CGI-I=1-2",38%
same,"CGI (mean, SD)",[1]; [4],4.63 (0.5)
same,"YBOCS (mean, SD)",[1]; [4],29.56 (4.0)
same,"CGI (mean, SD)","[1]; end of 6th week, responders (n = 12)",1.92 (0.7)
same,"YBOCS (mean, SD)","[1]; end of 6th week, responders (n = 12), added to SRI",20.33 (3.8)
same,"CGI (mean, SD)",[1]; [5],4.88 (0.4)
same,"YBOCS (mean, SD)",[1]; [5],29.44 (4.8)
same,"CGI (mean, SD)",[1]; [6],1.17 (0.4)
same,"YBOCS (mean, SD)",[1]; [6],16.75 (2.7)
same,"CGI-I Score, 6 Weeks",[1]; individual patients,2 (7×) and 3 (2×) and 5 (6×) and 1 (3×) and 4 (3×)
same,"CGI-I Score, 12 Weeks",[1]; individual patients,1 (10×) and 5 (8×) and 4 and 2 (2×)
same,"YBOCS % Reduction, 6 Weeks",[1]; [7],31.25% and 34.48% and 9.68% and 16.00% and 32.14% and 34.38% and 42.42% and 28.95% and 27.27% and 7.69% and 41.67% and 0.00% (3×) and 5.00% and 37.04% and 19.35% and −3.57% (2×) and 40.74% and 6.06%
same,"YBOCS % Reduction, 12 Weeks",[1]; [7],34.38% and 41.38% and 9.68% and 44.00% and 42.86% and 50.00% and 51.52% and 44.74% and 42.42% and 11.54% and 45.83% and 13.79% and 2.50% and −6.25% and 48.15% and 38.71% and −7.14% and −3.57% and 44.44% and −3.85% and 9.09%
same,"YBOCS Score, 6 Weeks",[1]; [8],22 and 19 (3×) and 28 and 21 (2×) and 27 and 24 (2×) and 14 and 29 (3×) and 38 and 32 and 17 and 25 and 16 and 26 and 31
same,"YBOCS Score, 12 Weeks",[1]; [8],21 (2×) and 17 and 28 and 14 (2×) and 16 (3×) and 19 (2×) and 23 and 13 and 25 and 39 and 34 and 30 (2×) and 29 and 15 and 27
same,average reduction in CGI scores for the whole group,"[1]; n = 21, 12 weeks",46%
same,average reduction in YBOCS-rated symptoms of the whole group,"[1]; n = 21, 12 weeks",26.3%
same,average YBOCS score change of the whole group (decrease),"[2]; 6 weeks, n = 14",16%
same,"YBOCS score decrease, Patient 11","[2]; 12th week, with citalopram 60 mg/day and risperidone 2 mg/day",35%
same,responders to ondansetron among patients on risperidone,"[2]; 12 weeks, six of seven patients",86%
same,side effects throughout the study (severity),"[2]; 12 weeks, up to 1 mg/day",mild to moderate
same,patients meeting YBOCS criteria for treatment response (reduction >25%),"[2]; end of 6th week, 3/14 patients",21.4%
same,"CGI (mean, SD)",[2]; [9],4.6 (1.5)
same,"MADRS (mean, SD)",[2]; [9],8.0 (4.0)
same,"YBOCS (mean, SD)",[2]; [9],22.8 (3.8)
same,"CGI (mean, SD)",[2]; [10],3.4 (1.6)
same,"MADRS (mean, SD)",[2]; [10],6.7 (2.4)
same,"YBOCS (mean, SD)","[2]; end of 6th week, responders (n = 9), 0.25 mg twice a day added to SRI + antipsychotic",22.6 (4.2)
same,"CGI (mean, SD)",[2]; [11],4.8 (1.3)
same,"MADRS (mean, SD)",[2]; [11],7.6 (3.8)
same,"YBOCS (mean, SD)",[2]; [11],21.4 (6.1)
same,"CGI (mean, SD)",[2]; [12],2.3 (1.2)
same,"MADRS (mean, SD)",[2]; [12],6.8 (2.0)
same,"YBOCS (mean, SD)","[2]; end of 12th week, responders (n = 9), 0.5 mg twice a day in weeks 7-12",20.8 (4.1)
same,average YBOCS change score of the whole group (decrease),"[2]; end of 12 weeks, n = 14",23% and 23.2%
same,decreased appetite (number of patients),[2]; first 2 weeks of treatment,two
same,headache (number of patients),[2]; first 2 weeks of treatment,two
same,significant side effects,[2]; fourteen subjects,None of the fourteen subjects experienced significant side effects or worsening of OC symptoms; also recorded: None of the subjects experienced significant or lasting side effects
same,Mean MADRS scores,[2]; from baseline to the end of week 1,did not change significantly
same,"YBOCS Score, 6 Weeks",[2]; individual patients 1-14,25 (3×) and 28 and 17 (2×) and 16 and 27 and 26 and 24 (3×) and 19 and 21
same,"YBOCS Score, 12 Weeks",[2]; individual patients 1-14,25 (3×) and 15 (2×) and 14 and 30 and 23 and 22 (2×) and 24 and 18 and 17 and 20
same,Percent Reduction at 6 weeks (YBOCS),[2]; [13],3.84% and 28.57% and 20.00% (2×) and 15.00% and 12.90% and 21.20% and 31.42% and 27.27% and 20.80% and 4.54% and 10.52% and .00% and 19.32%
same,Percent Reduction at 12 weeks (YBOCS),[2]; [13],3.84% and 28.57% (2×) and 25.00% (2×) and 30.00% and 3.22% and 27.27% (2×) and 37.14% and 22.72% and 21.05% and 16.60% and 29.03%
same,mild increase in anxiety levels (number of patients),[2]; lasted only one night,One
same,Clinical Global Impressions-Improvement (CGI-I) scores,[2]; through week 12 (FIG. 4),improved concurrent with improvement in the YBOCS scores
same,mean pulse rate or mean blood pressure,[2]; throughout the study,No change
same,course after discontinuation of the ondansetron,[2]; two responder patients,experienced worsening
same,effect on the mesenteric bed or the nerves in the heart,[3],did not appear to have effect on the mesenteric bed or the nerves in the heart
